{"source": "ChEMBL document CHEMBL1821624", "about": "“Synthesis, evaluation against Leishmania amazonensis and cytotoxicity assays in macrophages of sixteen new congeners Morita-Baylis-Hillman adducts” (Eur J Med Chem, 2011)", "key": {"Leishmania amazonensis [1]": {"test_system": "Leishmania amazonensis", "assay": "Antileishmanial activity against Leishmania amazonensis", "format": "functional, organism-based"}, "[2]": {"assay": "Cytotoxicity against Swiss mouse peritoneal macrophages after 24 hrs by MTT assay", "format": "cell-based, Peritoneal macrophage cell"}, "Leishmania amazonensis [3]": {"test_system": "Leishmania amazonensis", "assay": "Antileishmanial activity against Leishmania amazonensis IFLA/BR/67/PH8 promastigotes […] assessed as inhibition of parasite growth after 72 hrs by MTT assay", "format": "functional, organism-based", "conditions": "IFLA/BR/67/PH8, 72 h"}, "[4]": {"assay": "Selectivity index, ratio of CC50 for Swiss mouse peritoneal macrophages to IC50 for Leishmania amazonensis IFLA/BR/67/PH8 promastigotes", "format": "functional"}}}
{"smiles": "C=C(C(=O)OC)C(O)c1ccccc1[N+](=O)[O-]", "note": "(centres undefined)", "values": [{"measurement": "IC50", "setting": "Leishmania amazonensis [1]", "value": 62, "unit": "µM"}]}
{"smiles": "C=C(C(=O)OCCC)C(O)c1ccccc1[N+](=O)[O-]", "note": "(racemic)", "values": [{"measurement": "CC50 at 24 h", "setting": "[2]", "value": 135, "unit": "µM"}, {"measurement": "IC50", "setting": "Leishmania amazonensis [3]", "value": 28.4, "unit": "µM"}, {"measurement": "Ratio CC50/IC50", "setting": "[4]", "value": 4.75}]}
{"smiles": "C=C(C(=O)OCCC)C(O)c1cccc([N+](=O)[O-])c1", "note": "(racemic)", "values": [{"measurement": "CC50 at 24 h", "setting": "[2]", "value": 114, "unit": "µM"}, {"measurement": "IC50", "setting": "Leishmania amazonensis [3]", "value": 72.2, "unit": "µM"}, {"measurement": "Ratio CC50/IC50", "setting": "[4]", "value": 1.57}]}
{"smiles": "C=C(C(=O)OCCC)C(O)c1ccc([N+](=O)[O-])cc1", "note": "(racemic)", "values": [{"measurement": "CC50 at 24 h", "setting": "[2]", "value": 122, "unit": "µM"}, {"measurement": "IC50", "setting": "Leishmania amazonensis [3]", "value": 52, "unit": "µM"}, {"measurement": "Ratio CC50/IC50", "setting": "[4]", "value": 2.33}]}
{"smiles": "C=C(C(=O)OCCC)C(O)c1ccccn1", "note": "(racemic)", "values": [{"measurement": "CC50 at 24 h", "setting": "[2]", "value": 715, "unit": "µM"}, {"measurement": "IC50", "setting": "Leishmania amazonensis [3]", "value": 194, "unit": "µM"}, {"measurement": "Ratio CC50/IC50", "setting": "[4]", "value": 3.68}]}
{"smiles": "C=C(C(=O)OCCC)C(O)c1cccnc1", "note": "(racemic)", "values": [{"measurement": "CC50 at 24 h", "setting": "[2]", "value": 384, "unit": "µM"}, {"measurement": "IC50", "setting": "Leishmania amazonensis [3]", "value": 211, "unit": "µM"}, {"measurement": "Ratio CC50/IC50", "setting": "[4]", "value": 1.81}]}
{"smiles": "C=C(C(=O)OCCC)C(O)c1ccncc1", "note": "(racemic)", "values": [{"measurement": "CC50 at 24 h", "setting": "[2]", "value": 272, "unit": "µM"}, {"measurement": "IC50", "setting": "Leishmania amazonensis [3]", "value": 149, "unit": "µM"}, {"measurement": "Ratio CC50/IC50", "setting": "[4]", "value": 1.83}]}
{"smiles": "C=C(C(=O)OCCC)C(O)c1ccc2ccccc2c1", "note": "(racemic)", "values": [{"measurement": "CC50 at 24 h", "setting": "[2]", "value": 149, "unit": "µM"}, {"measurement": "IC50", "setting": "Leishmania amazonensis [3]", "value": 54.5, "unit": "µM"}, {"measurement": "Ratio CC50/IC50", "setting": "[4]", "value": 2.59}]}
{"smiles": "C=C(C(=O)OCCC)C(O)c1ccc(Br)cc1", "note": "(racemic)", "values": [{"measurement": "CC50 at 24 h", "setting": "[2]", "value": 125, "unit": "µM"}, {"measurement": "IC50", "setting": "Leishmania amazonensis [3]", "value": 74.7, "unit": "µM"}, {"measurement": "Ratio CC50/IC50", "setting": "[4]", "value": 1.67}]}
{"smiles": "C=C(C(=O)OCCO)C(O)c1ccccc1[N+](=O)[O-]", "note": "(racemic)", "values": [{"measurement": "CC50 at 24 h", "setting": "[2]", "value": 112, "unit": "µM"}, {"measurement": "IC50", "setting": "Leishmania amazonensis [3]", "value": 20.5, "unit": "µM"}, {"measurement": "Ratio CC50/IC50", "setting": "[4]", "value": 5.43}]}
{"smiles": "C=C(C(=O)OCCO)C(O)c1cccc([N+](=O)[O-])c1", "note": "(racemic)", "values": [{"measurement": "CC50 at 24 h", "setting": "[2]", "value": 69, "unit": "µM"}, {"measurement": "IC50", "setting": "Leishmania amazonensis [3]", "value": 64.6, "unit": "µM"}, {"measurement": "Ratio CC50/IC50", "setting": "[4]", "value": 1.06}]}
{"smiles": "C=C(C(=O)OCCO)C(O)c1ccc([N+](=O)[O-])cc1", "note": "(racemic)", "values": [{"measurement": "CC50 at 24 h", "setting": "[2]", "value": 46.9, "unit": "µM"}, {"measurement": "IC50", "setting": "Leishmania amazonensis [3]", "value": 53, "unit": "µM"}, {"measurement": "Ratio CC50/IC50", "setting": "[4]", "value": 0.88}]}
{"smiles": "C=C(C(=O)OCCO)C(O)c1ccccn1", "note": "(racemic)", "values": [{"measurement": "CC50 at 24 h", "setting": "[2]", "value": 749, "unit": "µM"}, {"measurement": "IC50", "setting": "Leishmania amazonensis [3]", "value": 266, "unit": "µM"}, {"measurement": "Ratio CC50/IC50", "setting": "[4]", "value": 2.81}]}
{"smiles": "C=C(C(=O)OCCO)C(O)c1cccnc1", "note": "(racemic)", "values": [{"measurement": "CC50 at 24 h", "setting": "[2]", "value": 418, "unit": "µM"}, {"measurement": "IC50", "setting": "Leishmania amazonensis [3]", "value": 324, "unit": "µM"}, {"measurement": "Ratio CC50/IC50", "setting": "[4]", "value": 1.29}]}
{"smiles": "C=C(C(=O)OCCO)C(O)c1ccncc1", "note": "(racemic)", "values": [{"measurement": "CC50 at 24 h", "setting": "[2]", "value": 458, "unit": "µM"}, {"measurement": "IC50", "setting": "Leishmania amazonensis [3]", "value": 382, "unit": "µM"}, {"measurement": "Ratio CC50/IC50", "setting": "[4]", "value": 1.2}]}
{"smiles": "C=C(C(=O)OCCO)C(O)c1ccc2ccccc2c1", "note": "(racemic)", "values": [{"measurement": "CC50 at 24 h", "setting": "[2]", "value": 118, "unit": "µM"}, {"measurement": "IC50", "setting": "Leishmania amazonensis [3]", "value": 52.5, "unit": "µM"}, {"measurement": "Ratio CC50/IC50", "setting": "[4]", "value": 2.24}]}
{"smiles": "C=C(C(=O)OCCO)C(O)c1ccc(Br)cc1", "note": "(racemic)", "values": [{"measurement": "CC50 at 24 h", "setting": "[2]", "value": 157, "unit": "µM"}, {"measurement": "IC50", "setting": "Leishmania amazonensis [3]", "value": 56.7, "unit": "µM"}, {"measurement": "Ratio CC50/IC50", "setting": "[4]", "value": 2.77}]}
